Experimental data reported in patent US8003631B2, “Composition and method for the treatment of tauopathies” (Tautatis, Inc., priority 2004, dated 2011).

Tests used:
[1] = tested on: PHF-type tau hyperphosphorylation; experiment: Titration of tau hyperphosphorylation inhibitors in okadaic acid-stimulated rat hippocampal brain slice model; type: cell-based; settings: okadaic acid provocation of PHF-markers
From the text: Authentic PHF-type phosphorylation events virtually indistinguishable by all known molecular markers from what is seen in PHF-tau from human Alzheimer's disease brains is rapidly provoked in such brain slices by application of the phosphatase inhibitor okadaic acid (OA) [Gong et al., Brain Res. Brain Res. Protoc., 6, 134-140 (2001); WO 01/57535; WO 00/01699].
In okadaic acid-treated brain slices, most of the above pathological markers are modeled. For the detection of active inhibitor compounds, freshly prepared metabolically-active isolated slices, kept under constant oxygenation in a physiological buffer (artificial cerebrospinal fluid or Krebs-Ringer solution), are preincubated with a range of concentration of the compounds of general formula 1. The slices are then extracted with buffers stopping both kinase as well as phosphatase activities, and soluble supernatants of such tissue homogenates are then separated by SDS-PAGE and subjected to Western-blotting. […] The intensity of the signals can then be normalized to the amount of total tau in the sample by probing a sister blot with a phosphorylation insensitive tau antibody, followed by forming the intensity ratio of the respective phosphoepitope over total tau immunoreactivity which represent an accurate quantitative measure of the degree of phosphorylation defining a particular epitope. […]

[2] = cited from earlier work

Row | SMILES | activity in the brain slice hyperphosphorylation model [1] | brain/plasma ratio ([2]; concentration in brain over concentration in plasma at a given time point) | maximal oral bioavailability ([2]; rats, oral)
1 | CCSCc1ccc2c(c1)c1c3c(c4c5cc(CSCC)ccc5n5c4c1n2[C@H]1C[C@](O)(C(=O)OC)[C@]5(C)O1)CNC3=O [CEP-1347] | inactive | – | –
2 | COC(=O)[C@@]1(O)C[C@H]2O[C@]1(C)n1c3ccccc3c3c4c(c5c6ccccc6n2c5c31)C(=O)NC4 [K252a] | – | below 1 | 13%
3 | CN[C@@H]1C[C@H]2O[C@@](C)([C@@H]1OC)n1c3ccccc3c3c4c(c5c6ccccc6n2c5c31)C(=O)NC4 [staurosporine] | inactive | – | –
